Test results taken from ChEMBL document CHEMBL3885881, “DrugMatrix”.

Organism: Rattus norvegicus
Test: DrugMatrix - Regimen: Daily Repeat
Format: toxicity, organism-based, Sprague-Dawley
Parameters: regimen Daily Repeat, gender Male, age 6-8 weeks
Conditions: in vivo, po, route oral GAVAGE, vehicle 100 % WATER; for ABSOLUTE BASOPHIL / ABSOLUTE EOSINOPHIL / ABSOLUTE LYMPHOCYTE / ABSOLUTE MONOCYTE / ABSOLUTE SEGMENTED NEUTROPHIL / BASOPHIL / EOSINOPHIL / ERYTHROCYTE COUNT / HEMATOCRIT / HEMOGLOBIN / LEUKOCYTE COUNT / LYMPHOCYTE / MEAN CORPUSCULAR HEMOGLOBIN / MEAN CORPUSCULAR HEMOGLOBIN CONCENTRATION / MEAN CORPUSCULAR VOLUME / MONOCYTE / NEUTROPHIL / NUCLEATED RED BLOOD CELLS / PLATELET COUNT: tissue Blood; for ALANINE AMINOTRANSFERASE / ALKALINE PHOSPHATASE / ASPARTATE AMINOTRANSFERASE / BLOOD UREA NITROGEN / CARBON DIOXIDE / CHLORIDE / CHOLESTEROL / CREATINE PHOSPHOKINASE / CREATININE / GLUCOSE / LACTATE DEHYDROGENASE / LIPASE / PHOSPHORUS / POTASSIUM / SODIUM / TOTAL BILIRUBIN / TOTAL PROTEIN / URIC ACID: tissue Plasma
[1] = 0 mg/kg, 72 h, dose level Control, time 3 day
[2] = 0 mg/kg, 120 h, dose level Control, time 5 day
[3] = 22 mg/kg, 72 h, dose level Low, time 3 day

COc1ccc(C(CN(C)C)C2(O)CCCCC2)cc1 (stereo unspecified) [VENLAFAXINE]
ABSOLUTE BASOPHIL [1]: 0 CELLS/uL | ABSOLUTE EOSINOPHIL [1]: 102 CELLS/uL | ABSOLUTE LYMPHOCYTE [1]: 12758 CELLS/uL | ABSOLUTE MONOCYTE [1]: 197.17 CELLS/uL | ABSOLUTE SEGMENTED NEUTROPHIL [1]: 1259.5 CELLS/uL | BASOPHIL [1]: 0% | EOSINOPHIL [1]: 0.83% | ERYTHROCYTE COUNT [1]: 5.3 x10E6/uL | HEMATOCRIT [1]: 33.47% | HEMOGLOBIN [1]: 13.12 G/DL | LEUKOCYTE COUNT [1]: 14.32 x10E3/uL | LYMPHOCYTE [1]: 89.33% | MEAN CORPUSCULAR HEMOGLOBIN [1]: 24.8 pg | MEAN CORPUSCULAR HEMOGLOBIN CONCENTRATION [1]: 39.18 G/DL | MEAN CORPUSCULAR VOLUME [1]: 63.25 fL | MONOCYTE [1]: 1.33% | NEUTROPHIL [1]: 8.5% | NUCLEATED RED BLOOD CELLS [1]: 0 /100WBC | PLATELET COUNT [1]: 1313.17 x10E3/uL | ALANINE AMINOTRANSFERASE [1]: 52.67 u/L | ALKALINE PHOSPHATASE [1]: 372 u/L | ASPARTATE AMINOTRANSFERASE [1]: 82.83 u/L | BLOOD UREA NITROGEN [1]: 15 mg/dL | CARBON DIOXIDE [1]: 25.67 mmol/L | CHLORIDE [1]: 102.17 MEQ/L | CHOLESTEROL [1]: 68.83 mg/dL | CREATINE PHOSPHOKINASE [1]: 285 u/L | CREATININE [1]: 0.18 mg/dL | GLUCOSE [1]: 149.17 mg/dL | LACTATE DEHYDROGENASE [1]: 263.83 u/L | LIPASE [1]: 10.17 u/L | PHOSPHORUS [1]: 12.58 mg/dL | POTASSIUM [1]: 6.58 MEQ/L | SODIUM [1]: 144.22 MEQ/L | TOTAL BILIRUBIN [1]: 0.22 mg/dL | TOTAL PROTEIN [1]: 5.83 G/DL | URIC ACID [1]: 1.58 mg/dL | ABSOLUTE BASOPHIL [2]: 0 CELLS/uL | ABSOLUTE EOSINOPHIL [2]: 24 CELLS/uL | ABSOLUTE LYMPHOCYTE [2]: 11134.17 CELLS/uL | ABSOLUTE MONOCYTE [2]: 56.33 CELLS/uL | ABSOLUTE SEGMENTED NEUTROPHIL [2]: 1235.5 CELLS/uL | BASOPHIL [2]: 0% | EOSINOPHIL [2]: 0.17% | ERYTHROCYTE COUNT [2]: 5.68 x10E6/uL | HEMATOCRIT [2]: 35.72% | HEMOGLOBIN [2]: 13.93 G/DL | LEUKOCYTE COUNT [2]: 12.45 x10E3/uL | LYMPHOCYTE [2]: 89.5% | MEAN CORPUSCULAR HEMOGLOBIN [2]: 24.63 pg | MEAN CORPUSCULAR HEMOGLOBIN CONCENTRATION [2]: 39.13 G/DL | MEAN CORPUSCULAR VOLUME [2]: 62.97 fL | MONOCYTE [2]: 0.5% | NEUTROPHIL [2]: 9.83% | NUCLEATED RED BLOOD CELLS [2]: 0 /100WBC | PLATELET COUNT [2]: 1204 x10E3/uL | ALANINE AMINOTRANSFERASE [2]: 59.5 u/L | ALKALINE PHOSPHATASE [2]: 415.67 u/L | ASPARTATE AMINOTRANSFERASE [2]: 91.33 u/L | BLOOD UREA NITROGEN [2]: 17 mg/dL | CARBON DIOXIDE [2]: 26.33 mmol/L | CHLORIDE [2]: 104.17 MEQ/L | CHOLESTEROL [2]: 77 mg/dL | CREATINE PHOSPHOKINASE [2]: 249.67 u/L | CREATININE [2]: 0.21 mg/dL | GLUCOSE [2]: 148.33 mg/dL | LACTATE DEHYDROGENASE [2]: 168.5 u/L | LIPASE [2]: 10.17 u/L | PHOSPHORUS [2]: 12.92 mg/dL | POTASSIUM [2]: 7.09 MEQ/L | SODIUM [2]: 148.37 MEQ/L | TOTAL BILIRUBIN [2]: 0.23 mg/dL | TOTAL PROTEIN [2]: 6.3 G/DL | URIC ACID [2]: 1.77 mg/dL | ABSOLUTE BASOPHIL [3]: 0 CELLS/uL | ABSOLUTE EOSINOPHIL [3]: 59.67 CELLS/uL | ABSOLUTE LYMPHOCYTE [3]: 13145.33 CELLS/uL | ABSOLUTE MONOCYTE [3]: 145.33 CELLS/uL | ABSOLUTE SEGMENTED NEUTROPHIL [3]: 1183 CELLS/uL | BASOPHIL [3]: 0% | EOSINOPHIL [3]: 0.33% | ERYTHROCYTE COUNT [3]: 5.58 x10E6/uL | HEMATOCRIT [3]: 35.93% | HEMOGLOBIN [3]: 14.03 G/DL | LEUKOCYTE COUNT [3]: 14.53 x10E3/uL | LYMPHOCYTE [3]: 90.67% | MEAN CORPUSCULAR HEMOGLOBIN [3]: 25.13 pg | MEAN CORPUSCULAR HEMOGLOBIN CONCENTRATION [3]: 39.1 G/DL | MEAN CORPUSCULAR VOLUME [3]: 64.33 fL | MONOCYTE [3]: 1% | NEUTROPHIL [3]: 8% | NUCLEATED RED BLOOD CELLS [3]: 0 /100WBC | PLATELET COUNT [3]: 1219 x10E3/uL | ALANINE AMINOTRANSFERASE [3]: 59.67 u/L | ALKALINE PHOSPHATASE [3]: 338 u/L | ASPARTATE AMINOTRANSFERASE [3]: 94.33 u/L | BLOOD UREA NITROGEN [3]: 15.67 mg/dL | CARBON DIOXIDE [3]: 24.33 mmol/L | CHLORIDE [3]: 103.67 MEQ/L | CHOLESTEROL [3]: 73.67 mg/dL | CREATINE PHOSPHOKINASE [3]: 320.67 u/L | CREATININE [3]: 0.17 mg/dL | GLUCOSE [3]: 162 mg/dL | LACTATE DEHYDROGENASE [3]: 412.33 u/L | LIPASE [3]: 11.33 u/L | PHOSPHORUS [3]: 13.2 mg/dL | POTASSIUM [3]: 6.69 MEQ/L | SODIUM [3]: 146.03 MEQ/L | TOTAL BILIRUBIN [3]: 0.13 mg/dL | TOTAL PROTEIN [3]: 6.2 G/DL | URIC ACID [3]: 2.33 mg/dL
